According to the supplement of paper PMC10307832:

Assays:
Assay in all cases: relative viability (nuclei count vs DMSO), 5 days (fraction); higher = more cells survive
AZ3146 + Palbociclib = compound: CN1CCC(CC1)OC2=CC(=C(C=C2)NC3=NC=C4C(=N3)N(C(=O)N4C)C5CCCC5)OC [AZ3146] + CC(=O)c1c(C)c2cnc(Nc3ccc(N4CCNCC4)cn3)nc2n(C2CCCC2)c1=O [Palbociclib] (partner 0.5 µM)
Outline: (§1)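 Nuclei were stained with Hoechst during a one-step fixation (final 0.05% Triton X-100, 1% formaldehyde, 1 ug/ml Hoechst) carried out 5 days after dosing, then counted on 4× images. The cells, lung cancer lines in 1536-well plates, had been dosed by pin tool the day after seeding with one drug alone or a fixed anchor-drug dose plus five library-drug doses (not always all listed) in √10 steps. Relative viability is the nuclei count in treated wells divided by that in vehicle wells, and each value is the median of duplicate plates.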

GSK-J4 + Vorinostat = compound: CCOC(=O)CCNc1cc(N2CCc3ccccc3CC2)nc(-c2ccccn2)n1 [GSK-J4] + O=C(CCCCCCC(=O)Nc1ccccc1)NO [Vorinostat] (partner 1 µM)
Outline: as §1

AZ3146 + OSI-027 = compound: CN1CCC(CC1)OC2=CC(=C(C=C2)NC3=NC=C4C(=N3)N(C(=O)N4C)C5CCCC5)OC [AZ3146] + COc1cccc2cc(-c3nc([C@H]4CC[C@H](C(=O)O)CC4)n4ncnc(N)c34)[nH]c12 [OSI-027] (partner 0.5 µM)
Outline: as §1

AZ3146 + Vorinostat = compound: CN1CCC(CC1)OC2=CC(=C(C=C2)NC3=NC=C4C(=N3)N(C(=O)N4C)C5CCCC5)OC [AZ3146] + O=C(CCCCCCC(=O)Nc1ccccc1)NO [Vorinostat] (partner 1 µM)
Outline: as §1

## UMC-11
AZ3146 + Palbociclib; first compound 0.08 µM
  relative viability: 0.267
AZ3146 + Palbociclib; first compound 0.253 µM
  relative viability: 0.342
AZ3146 + Palbociclib; first compound 0.8 µM
  relative viability: 0.335
AZ3146 + Palbociclib; first compound 2.53 µM
  relative viability: 0.303
AZ3146 + Palbociclib; first compound 8 µM
  relative viability: 0.306
GSK-J4 + Vorinostat; first compound 0.5 µM
  relative viability: 0.418
GSK-J4 + Vorinostat; first compound 1.581 µM
  relative viability: 0.364
GSK-J4 + Vorinostat; first compound 5 µM
  relative viability: 0.492
GSK-J4 + Vorinostat; first compound 15.81 µM
  relative viability: 0.437
GSK-J4 + Vorinostat; first compound 50 µM
  relative viability: 0.187
AZ3146 + OSI-027; first compound 0.08 µM
  relative viability: 0.462
AZ3146 + OSI-027; first compound 0.253 µM
  relative viability: 0.46
AZ3146 + OSI-027; first compound 0.8 µM
  relative viability: 0.425
AZ3146 + OSI-027; first compound 2.53 µM
  relative viability: 0.475
AZ3146 + OSI-027; first compound 8 µM
  relative viability: 0.314
AZ3146 + Vorinostat; first compound 0.08 µM
  relative viability: 0.299
AZ3146 + Vorinostat; first compound 0.253 µM
  relative viability: 0.389
AZ3146 + Vorinostat; first compound 0.8 µM
  relative viability: 0.406
AZ3146 + Vorinostat; first compound 2.53 µM
  relative viability: 0.267
AZ3146 + Vorinostat; first compound 8 µM
  relative viability: 0.175
